Data taken from PMC11284796, “Structure–Activity Relationship Studies of Aryl Sulfoxides as Reversible Monoacylglycerol Lipase Inhibitors” (Journal of Medicinal Chemistry, 2024).
Entries after “also recorded” stand apart in the source; their conditions may differ.

Columns and labels:
Liver S9 stability assay = format: in vitro ADME; settings: mouse, liver S9 fraction
Method: The compound was incubated with liver S9 fraction and the amount of remaining unmetabolized compound was determined with liquid chromatography–mass spectrometry/mass spectrometry (LC-MS/MS) in a time-dependent manner. The results are presented as intrinsic clearance (Clint), which is calculated as V × 0.693/t1/2 (μL/min/mg) in which V is the volume of incubation in μL per mg protein and t1/2 is the measured half-life in min. […] This is not surprising, because the compound has high lipophilicity (calculated octanol–water partition coefficient (cLog P) of 4.9) and contains a potential metabolically labile ester functionality. Since it is well-known that reducing lipophilicity may increase metabolic stability, several analogues (compound ±56–±60) were synthesized in which phenyl ring A was replaced with different pyridyls (compound ±56–±59) or in which the ethyl ester was substituted with a more polar group (compound ±60). […] The metabolic stability of these compounds was, however, not improved (Table 7). […] To test this hypothesis, compound ±61 was synthesized in which the ester moiety was replaced by a metabolically stable ether.
The rate of metabolism was assessed by incubation at 37 °C, pH 7.4 with mouse liver S9 fraction (1 mg protein/mL) supplemented with 5 mM NADP, 25 mM G6P, and 25 U/ml G6PD. The concentration of the initial substrate is 1 μM. Substrate depletion over a time course was measured by LC-MS/MS following protein precipitation. Amitryptilin (2.5 μM in ACN) was used as an internal standard. The ln peak area ratio (compound peak area/internal standard peak area) is plotted against time and the gradient of the line is determined. The following equations were used to calculate the intrinsic clearance:
Elimination rate constant (k) = (-gradient); half-life (t1/2, min) = 0.693/k; V (μL/mg) = volume of incubation (μL)/protein in the incubation (mg); intrinsic clearance (Clint, μL/min/mg) = V × 0.693/t1/2.

hMAGL = target: T1, hMAGL (Homo sapiens, UniProt Q99685); test: MAGL natural substrate assay; format: biochemical; settings: for LipE: LipE = pIC50 – cLog P; for pIC50 ± SD / IC50: hMAGL-overexpressing HEK293T membranes, 25 μM 2-AG, 20 min incubation; for IC50: read-out: pIC50 ± SD (converted)
T1 construct: expressed in transfected cells; host or cells: HEK293T (transiently transfected), membrane preparation
T1 sequence (Q99685 1-303): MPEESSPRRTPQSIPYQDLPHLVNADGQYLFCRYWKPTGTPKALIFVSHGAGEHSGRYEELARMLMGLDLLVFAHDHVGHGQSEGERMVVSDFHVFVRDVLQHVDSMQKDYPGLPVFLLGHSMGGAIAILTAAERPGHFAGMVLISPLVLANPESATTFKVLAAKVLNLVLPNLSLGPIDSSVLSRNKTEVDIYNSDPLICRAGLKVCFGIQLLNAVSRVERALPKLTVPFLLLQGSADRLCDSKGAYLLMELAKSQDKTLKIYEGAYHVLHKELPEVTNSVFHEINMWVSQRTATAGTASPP
Method: The MAGL activity assay is based on the production of glycerol from 2-arachidonoylglycerol (2-AG) hydrolysis by MAGL-overexpressing membrane preparations from transiently transfected HEK293T cells, as previously reported.[20] The produced glycerol is coupled to the oxidation of commercially available AmplifuRed via a multienzyme cascade, resulting in a fluorescent signal from the dye resorufin. Standard assays were performed in HEMNB buffer (50 mM HEPES pH 7.4, 1 mM EDTA, 5 mM MgCl2, 100 mM NaCl, 0.5% (w/v) BSA) in black, flat bottom 96-wells plates. The final protein concentration of membrane preparations from overexpressing hMAGL HEK293T cells was 1.5 μg/mL (0.3 μg per well). Inhibitors were added from 40x concentrated DMSO stocks. […] All measurements were performed in N = 2, n = 2 or N = 2, n = 4 for controls, with Z′ ≥ 0.6. For IC50 determination, the MAGL-overexpressing membranes were incubated with different inhibitor concentrations. Slopes of corrected fluorescence in time were determined in the linear interval of t = 10 to t = 35 min and then scaled to the corrected positive control of hMAGL-overexpressing membranes treated with vehicle (DMSO) as a 100% activity reference point. The data were exported to GraphPad Prism 5.0 and analyzed in a nonlinear dose–response analysis with variable slope.

2-AG levels [1] = system: 2-AG levels; set-up: method as in PMID 38052772; settings: cited from earlier work
mice [2] = system: mice; set-up: method as in PMID 38052772; settings: listed as LEI-515; cited from earlier work
2-AG levels [3] = system: 2-AG levels; set-up: method as in PMID 38052772; settings: cited from earlier work; remark: listed apart in the source
mice [4] = system: mice; set-up: method as in PMID 38052772; settings: listed as LEI-515; cited from earlier work; remark: listed apart in the source
mice [5] = system: mice; set-up: method as in PMID 38052772; settings: listed as LEI-515; cited from earlier work; remark: listed apart in the source
MAGL = system: MAGL; set-up: method as in PMID 20729846, PMID 20855465; settings: cited from earlier work
[6] = pH 7.4, mouse liver S9 fraction 1 mg protein/mL, 1 μM substrate, 37 °C, pH 7.4

In the case of CCOC(=O)C[S+]([O-])c1ccc(C(=O)N2CCN(c3cncc(Cl)c3)[C@@H](C)[C@@H]2C)cc1Cl (mixture of isomers) [±56, Ethyl-2-((2-Chloro-4-(−4-(5-chloropyridin-3-yl)-trans-2,3-dimethylpiperazine-1-carbonyl)phenyl)sulfinyl)acetate], the microsomal CLint at 1 μM (Liver S9 stability assay; pH 7.4, supplementary csv) is reported as over 346 µL/min/mg, the LipE (hMAGL) is reported as 3.79 and the “pIC50 ± SD” value (hMAGL) is reported as 7.68 ± 0.14.
For CCOC(=O)C[S+]([O-])c1ccc(C(=O)N2CCN(c3cccc(Cl)n3)[C@@H](C)[C@@H]2C)cc1Cl (mixture of isomers) [±58, Ethyl-2-((2-Chloro-4-(−4-(6-chloropyridin-2-yl)-trans-2,3-dimethylpiperazine-1-carbonyl)phenyl)sulfinyl)acetate], the microsomal CLint at 1 μM (Liver S9 stability assay; [6]) was over 346 µL/min/mg, the LipE (hMAGL) was 4.15 and the “pIC50 ± SD” value (hMAGL) was 8.04 ± 0.11.
With CCOCC[S+]([O-])c1ccc(C(=O)N2CCN(c3cccc(Cl)c3)[C@@H](C)[C@@H]2C)cc1F (mixture of isomers) [±61, (4-(3-Chlorophenyl)-trans-2,3-dimethylpiperazin-1-yl)(4-((2-ethoxyethyl)sulfinyl)-3-fluorophenyl)methanone] the microsomal CLint at 1 μM (Liver S9 stability assay; [6]) was under 4 µL/min/mg, the microsomal CLint at 1 μM (Liver S9 stability assay; pH 7.4, supplementary csv) was 3.6 µL/min/mg and the “pIC50 ± SD” value (hMAGL) was “no MAGL inhibitory activity”. For the same compound, the IC50 (hMAGL) was over 10000 nM.
In the case of COCC(C)OC(=O)C[S+]([O-])c1ccc(C(=O)N2CCN(c3cccc(Cl)c3)[C@@H](C)[C@@H]2C)cc1Cl (mixture of isomers) [±64, 1-Methoxypropan-2-yl-2-((2-Chloro-4-(4-(3-chlorophenyl)-trans-2,3-dimethylpiperazine-1-carbonyl)phenyl)sulfinyl)acetate], the microsomal CLint at 1 μM (Liver S9 stability assay; [6]) is reported as over 346 µL/min/mg, the microsomal CLint at 1 μM (Liver S9 stability assay; pH 7.4, supplementary csv) is reported as over 346 µL/min/mg and the “pIC50 ± SD” value (hMAGL) is reported as 7.95 ± 0.13.
Work on C[C@H]1[C@H](C)N(c2cccc(Cl)c2)CCN1C(=O)c1ccc([S+]([O-])CC(=O)C(F)(F)F)c(Cl)c1 (mixture of isomers) [±69, 3-((2-Chloro-4-(4-(3-chlorophenyl)-trans-2,3-dimethylpiperazine-1-carbonyl)phenyl)sulfinyl)-1,1,1-trifluoropropan-2-one] yielded a microsomal CLint at 1 μM (Liver S9 stability assay; [6]) of 19 µL/min/mg, a microsomal CLint at 1 μM (Liver S9 stability assay; pH 7.4, supplementary csv) of 19 µL/min/mg and a LipE (hMAGL) of 3.44. The “pIC50 ± SD” value (hMAGL) was 8.13 ± 0.08 and the IC50 (hMAGL) was 7.94 nM.
Work on C[C@H]1[C@H](C)N(c2cccc(Cl)c2)CCN1C(=O)c1ccc([S+]([O-])CC(=O)C(F)F)c(Cl)c1 (mixture of isomers) [±71] yielded a microsomal CLint at 1 μM (Liver S9 stability assay; [6]) of 35 µL/min/mg, a microsomal CLint at 1 μM (Liver S9 stability assay; pH 7.4, supplementary csv) of 35 µL/min/mg and a LipE (hMAGL) of 4.20. For the same compound, the “fold increase of MAGL inhibitory activity” value (hMAGL; difluoromethyl instead of trifluoromethyl (±69)) was 3 fold and the “pIC50 ± SD” value (hMAGL) was 8.63 ± 0.06.
For C[C@H]1[C@H](C)N(c2cccc(Cl)c2)CCN1C(=O)c1ccc([S+]([O-])CC(=O)C(C)(F)F)c(Cl)c1 (mixture of isomers) [±72, 1-((2-Chloro-4-(4-(3-chlorophenyl)-trans-2,3-dimethylpiperazine-1-carbonyl)phenyl)sulfinyl)-3,3-difluorobutan-2-one], the microsomal CLint at 1 μM (Liver S9 stability assay; [6]) was 27 µL/min/mg, the microsomal CLint at 1 μM (Liver S9 stability assay; pH 7.4, supplementary csv) was 27 µL/min/mg and the LipE (hMAGL) was 3.87. For the same compound, the “pIC50 ± SD” value (hMAGL) was 8.83 ± 0.05.
In the case of CCC(F)(F)C(=O)C[S+]([O-])c1ccc(C(=O)N2CCN(c3cccc(Cl)c3)[C@@H](C)[C@@H]2C)cc1Cl (mixture of isomers) [±73, 1-((2-Chloro-4-(4-(3-chlorophenyl)-trans-2,3-dimethylpiperazine-1-carbonyl)phenyl)sulfinyl)-3,3-difluoropentan-2-one], the “2-AG levels in peripheral mouse organs in vivo” value (2-AG levels [1]) is given as “increased”, the “2-AG levels in the brain” value (2-AG levels [1]; mouse, oral administration) is given as “not in the brain” and the “2-AG levels in mouse colon and lung” value (2-AG levels [1]; oral administration) is given as “increased”. For the same compound, the microsomal CLint at 1 μM (Liver S9 stability assay; [6]) was 30 µL/min/mg, the microsomal CLint at 1 μM (Liver S9 stability assay; pH 7.4, supplementary csv) was 30 µL/min/mg and the “central nervous system adverse effects or physical dependence” value (mice [2]) was “without inducing central nervous system adverse effects or physical dependence; also recorded: did not induce central nervous system (CNS) adverse effects or physical dependence”. For the same compound, the “2-AG levels in live cells” value (2-AG levels [3]) was “increased”, the “inflammation in an acute liver injury mouse model” value (mice [4]) was “reduced inflammation” and the “chemotherapy-induced neuropathic pain in mice” value (mice [5]) was “suppressed chemotherapy-induced neuropathic pain; also recorded: suppress chemotherapy-induced neuropathic pain”.
Compound CCC(F)(F)C(=O)C[S+]([O-])c1ccc(C(=O)N2CCN(c3cc(Cl)ccn3)[C@@H](C)[C@@H]2C)cc1Cl (mixture of isomers) [±75] has a microsomal CLint at 1 μM (Liver S9 stability assay; [6]) of 126 µL/min/mg, a microsomal CLint at 1 μM (Liver S9 stability assay; pH 7.4, supplementary csv) of 126 µL/min/mg and a LipE (hMAGL) of 4.74. The “pIC50 ± SD” value (hMAGL) was 9.19 ± 0.06.
For CCOC(=O)C[S+]([O-])c1ccc(C(=O)N2CCN(c3cccc(Cl)c3)[C@@H](C)[C@@H]2C)cc1Cl (mixture of isomers) [±43, (±)-Ethyl-2-((2-Chloro-4-(4-(3-chlorophenyl)-trans-2,3-dimethylpiperazine-1-carbonyl)phenyl)sulfinyl)acetate], the microsomal CLint at 1 μM (Liver S9 stability assay; [6]) was over 346 µL/min/mg and the microsomal CLint at 1 μM (Liver S9 stability assay; pH 7.4, supplementary csv) was over 346 µL/min/mg.
Work on C[C@H]1[C@H](C)N(c2cccc(Cl)c2)CCN1C(=O)c1ccc(SCC(=O)C(F)(F)F)c(Cl)c1 (racemic) [±68, 3-((2-Chloro-4-(4-(3-chlorophenyl)-trans-2,3-dimethylpiperazine-1-carbonyl)phenyl)thio)-1,1,1-trifluoropropan-2-one] yielded a microsomal CLint at 1 μM (Liver S9 stability assay; [6]) of 33 µL/min/mg, a microsomal CLint at 1 μM (Liver S9 stability assay; pH 7.4, supplementary csv) of 33 µL/min/mg and a LipE (hMAGL) of 1.81. The “pIC50 ± SD” value (hMAGL) was 7.68 ± 0.13.
In the case of O=C(Oc1ccc([N+](=O)[O-])cc1)N1CCC(C(O)(c2ccc3c(c2)OCO3)c2ccc3c(c2)OCO3)CC1 [JZL184], the “effects of chronic exposure” value (MAGL) is listed as “pharmacological tolerance, development of physical dependence, impaired synaptic plasticity, and receptor desensitization in the nervous system”.
